Experiments:
IMQ-induced psoriasis = IMQ-induced psoriasis in mice (PASI score); assay type: in vivo, KM mice; details: for PASI score (folds, scales, erythema): IMQ mice, 1.2 wt % in blank matrix, 62.5 mg topical
Protocol: • 1) The efficacy on IMQ-induced psoriasis in mice by compound 6 # was evaluated.
[drawing 91] • 2) Grouping • (1) Petrolatum+blank matrix group, 10 mice; • (2) IMQ+blank matrix group, 10 mice; • (3) IMQ+compound 6 #group (1.2 wt % in blank matrix), 10 mice. • IMQ: imiquimod • 3) Formulation • IMQ: 5% imiquimod (imiquimod was used for inducing psoriasis on the skin of modeling mice) 1.2% compound 6 #formulation was prepared in blank matrix • 4) Animals • Species and strain: SPF-grade KM mice, male • Weight: 35-40 g • Source: SPF (Beijing) Biotechnology Co., Ltd. • Housing conditions: air-conditioned room, with a temperature of 18-26° C. and a relative humidity of 20%-60%. • 5) Procedures
Skin pretreatment: Mice were given free access to water and food. After 5 days of adaptation in the animal room, the hair on the back of the mice within an area of 2 cm×2.5 cm was shaved. The area was treated with a depilatory cream for 30 s-1 min, and then the cream was removed with cotton pads. Randomization: 24 h after depilation, […] by weight: petrolatum+blank matrix group (10 mice); IMQ+blank matrix group (10 mice); IMQ+compound 6 #group (1.2% compound in blank matrix) (10 mice).
Modeling and treatment: 62.5 mg of 5% imiquimod or petrolatum in the morning was administered to the mice in the morning. In the afternoon, 62.5 mg of blank matrix or 1.2% compound 6 # was smeared on the back.
Recording: Before modeling in the morning, the condition of the skin folds, erythema, and scales was observed, scored, and photographed daily, and the mouse PASI score was calculated.

[1] = Ointment diffusion test, ex vivo rabbit skin; assay type: in vitro ADME; details: ointments: 2# 1.2 wt %, 6# 1.2 wt %, benvitimod 1.0 wt %, 32° C.
Protocol: (§1) Test compounds: compound 2 #ointment, 1.2 wt %; compound 6 #ointment, 1.2 wt %; benvitimod ointment, 1.0 wt %;
• (1) Preparation of ex vivo rabbit skin • (2) Preparation of receiving liquid: 100 mL of polyethylene glycol 400 solution was brought to a final volume of 250 mL with normal saline. The mixture was mixed well and stored at 4° C. Before each permeation in the receiving compartment, the system was preheated to 32° C. • (3) In vitro transdermal test: A drug transdermal diffusion apparatus was used to fix the processed rabbit skin between the supply and receiving compartments, with the stratum corneum facing the supply compartment. A constant temperature water bath circulation at 32° C. was maintained. The system was equilibrated for 30 min. Upon each replacement of the receiving liquid, the air at the lower layer was exhausted, and the liquid droplets on the skin surface were removed with paper. 0.5 g of the ointment was evenly smeared in the supply compartment. The system was stirred with a magnetic stirring at a rotation speed of 600 r/min. At 0.5, 1, 2, 3, 4, 5, 7, 9, 12, and 24 h, 1 mL of sample liquid was taken out from the receiving compartment and transferred into a liquid phase vial, and simultaneously, an equal amount of fresh receiving liquid at the same temperature was added. The liquid phase detection was conducted to calculate the drug permeation rate.

[2] = Drug permeation rate test, in vitro diffusion through semipermeable membrane; assay type: in vitro ADME; details: ointments: 2# 1.2 wt %, 6# 1.2 wt %, benvitimod 1.0 wt %, 32° C.
Protocol: as §1
[drawing 90] • (1) Preparation of semipermeable membrane: The semipermeable membrane, which had been prepared in advance, was taken out from the refrigerator; • (2) Preparation of receiving liquid: 100 mL of polyethylene glycol 400 solution was brought to a final volume of 250 mL with normal saline. The mixture was mixed well and stored at 4° C. Before each permeation in the receiving compartment, the system was preheated to 32° C.; • (3) In vitro diffusion test: A drug transdermal diffusion apparatus was used to fix the processed semipermeable membrane between the supply and receiving compartments. A constant temperature water bath circulation at 32° C. was maintained. The system was equilibrated for 30 min. Upon each replacement of the receiving liquid, the air at the lower layer was exhausted. About 0.5 g of the ointment was evenly smeared in the supply compartment. The system was stirred with a magnetic stirring at a rotation speed of 600 r/min. At 0.5, 1, 2, 4, 6, and 24 h, 1 mL of sample liquid was taken out from the receiving compartment, and simultaneously, an equal amount of fresh receiving liquid at the same temperature was added;
The sampling time points were 0.5, 1, 2, 4, 6, and 24 h, and 1 mL of sample was directly transferred into a liquid phase vial. Simultaneously, an equal amount of fresh receiving liquid at the same temperature was added. The liquid phase detection was conducted to calculate the drug permeation rate.

| 24-hour drug permeation rate (rank order) [1] | 24-hour drug permeation rate (rank order) [2] | Compound | PASI score (folds, scales, erythema) (IMQ-induced psoriasis; Day 1) | PASI score (folds, scales, erythema) (IMQ-induced psoriasis; Day 2) | PASI score (folds, scales, erythema) (IMQ-induced psoriasis; Day 3) | PASI score (folds, scales, erythema) (IMQ-induced psoriasis; Day 4) | PASI score (folds, scales, erythema) (IMQ-induced psoriasis; Day 5) | PASI score (folds, scales, erythema) (IMQ-induced psoriasis; Day 6) | PASI score (folds, scales, erythema) (IMQ-induced psoriasis; Day 7) | therapeutic effect versus IMQ+blank matrix group (IMQ-induced psoriasis; day 7, 1.2 wt % in blank matrix) |
| --- | --- | --- | --- | --- | --- | --- | --- | --- | --- | --- |
| benvitimod >2 #>6 # | benvitimod >2 #>6 # | Oc1cc(/C=C/c2ccc(F)cc2)cc(O)c1C1CCCCC1 [Compound 6, (E)-2-cyclohexyl-5-(4-fluorostyryl)-1,3-benzenediol] | 3.90 | 4.30 | 6.10 | 6.30 | 6.50 | 5.80 | 5.60 | significantly superior therapeutic effect |
| benvitimod >2 #>6 # | benvitimod >2 #>6 # | CC(C)c1c(O)cc(/C=C/c2ccccc2)cc1O [Reference 1#, Benvitimod, reference compound] | – | – | – | – | – | – | – | – |
